According to patent US5516790A, “Synthesis and application of alkyl-substituted dibenzofurans as antitumorigenic agents” (Texas A&M University System Technology Licensing Office, priority 1994, dated 1996):

Key:
female rat uterus = assay: Antiestrogenic effect on uterine wet weight, immature female Sprague-Dawley rats (Example 8); type: in vivo
estrogen receptor (ER) = assay: Uterine estrogen receptor levels, hydroxyapatite assay (Example 8); type: in vivo, female Sprague-Dawley rats; details: for ED40-60 for Inhibition, ERc / ED40-60 for Inhibition, ERn: cotreatment with 17β-estradiol
Experimental: A second group of animals was similarly treated with corn oil, TCDD, MCDF, or TCDD plus MCDF, all administered in corn oil at 10 ml/kg and terminated 72 hours later.
(§1) The animals were terminated by cervical dislocation. Livers were perfused with ice-cold TEDG buffer (10 mM Tris-HCl, 1.5 mM EDTA-4Na, 1 mM dithiothreitol, 10% glycerol (v/v), pH 7.4). Following perfusion in situ, livers were removed, weighed, and homogenized in ice-cold TEDG buffer. Uteri were also removed, weighed, and homogenized in ice-cold buffer. The homogenates were then centrifuged at 800×g ([…]) for 15 minutes and the nuclear pellets were stored at -80° C. The supernatants were further centrifuged at 180,000× g for 1.5 hours. The cytosolic supernatant was also stored at -80° C. Estrogen and progesterone receptor levels were determined within 7 days.
(§2) Estrogen (ER) and progesterone (PR) receptor levels were determined by the hydroxyapatite assay as described by Clark et al. (J. Steroid Biochem. 16:323-328, 1982) and incorporated herein by reference. […] Following the incubations, samples were counted and specific binding was calculated by subtraction of nonspecific from total binding. Assuming one steroid molecule binds to one estrogen/progesterone receptor, the number of moles of receptor can be calculated given the specific activity of the radioligand. The data presented in Tables 1 through 6 are means ± SD using at least four animals per treatment group. Significant differences were determined by analysis of variance.

[1] = system: progesterone receptor (PR); assay: Uterine progesterone receptor levels, hydroxyapatite assay (Example 8); type: in vivo, female Sprague-Dawley rats; details: for ED40-60 for Inhibition, PRc / ED40-60 for Inhibition, PRn: cotreatment with 17β-estradiol
Experimental: as §1, §2

[2] = Table 3: 50 μmol/kg + E-2 (2 × 10 μg/rat)
[3] = Table 3: compound alone, 50 μmol/kg (17β-estradiol: 2 × 10 μg/rat)
[4] = dose-response, 2 μmol/kg + 17β-estradiol (2 × 10 μg/rat)
[5] = dose-response, 10 μmol/kg + 17β-estradiol (2 × 10 μg/rat)
[6] = dose-response, 25 μmol/kg + 17β-estradiol (2 × 10 μg/rat)
[7] = dose-response, 50 μmol/kg + 17β-estradiol (2 × 10 μg/rat)
[8] = 150 μmol/kg + E-2 (2 × 10 μg/rat), run B
[9] = compound alone, 150 μmol/kg (17β-estradiol: 2 × 10 μg/rat), run B

Compound | Uterine Wet Weight (female rat uterus; [2]) [% body wt] | Uterine Wet Weight (female rat uterus; [3]) [% body wt] | Estrogen Receptor Levels, Cytosolic (estrogen receptor (ER); [2]) [fmol/mg protein] | Estrogen Receptor Levels, Nuclear (estrogen receptor (ER); [2]) [fmol/mg protein] | Estrogen Receptor Levels, Cytosolic (estrogen receptor (ER); [3]) [fmol/mg protein] | Estrogen Receptor Levels, Nuclear (estrogen receptor (ER); [3]) [fmol/mg protein] | ED40-60 for Inhibition, ERc (estrogen receptor (ER)) [µmol/kg] | ED40-60 for Inhibition, ERn (estrogen receptor (ER)) [µmol/kg] | Progesterone Receptor Levels, Cytosolic [1, 2] [fmol/mg protein] | Progesterone Receptor Levels, Nuclear [1, 2] [fmol/mg protein] | Progesterone Receptor Levels, Cytosolic [1, 3] [fmol/mg protein] | Progesterone Receptor Levels, Nuclear [1, 3] [fmol/mg protein] | ED40-60 for Inhibition, PRc [1] [µmol/kg] | ED40-60 for Inhibition, PRn [1] [µmol/kg] | Uterine Wet Weight (female rat uterus; [8]) [% body wt] | Uterine Wet Weight (female rat uterus; [9]) [% body wt] | Estrogen Receptor Levels, Cytosolic (estrogen receptor (ER); [8]) [fmol/mg protein] | Estrogen Receptor Levels, Nuclear (estrogen receptor (ER); [8]) [fmol/mg protein] | Estrogen Receptor Levels, Cytosolic (estrogen receptor (ER); [9]) [fmol/mg protein] | Estrogen Receptor Levels, Nuclear (estrogen receptor (ER); [9]) [fmol/mg protein] | also measured
Cc1cc2c(cc1Cl)oc1c(Cl)c(Cl)c(Cl)cc12 [8-Methyl-2,3,4,7-tetraCDF, 8-Methyl-2,3,4,7-tetrachlorodibenzofuran] | 0.245 ± 0.006 | 0.094 ± 0.006 | 107.2 ± 5.4 | 43.7 ± 2.2 | 66.8 ± 3.3 | 30.9 ± 1.6 | 10 | 25 | 725 ± 51 | 360 ± 25 | 616 ± 43 | 161 ± 13 | 10 | 10 |  |  |  |  |  |  | Uterine Wet Weight (female rat uterus; [4]): 0.179 ± 0.009 % body wt; Uterine Wet Weight (female rat uterus; [5]): 0.201 ± 0.008 % body wt; Uterine Wet Weight (female rat uterus; [6]): 0.181 ± 0.002 % body wt; Uterine Wet Weight (female rat uterus; [7]): 0.172 ± 0.005 % body wt; Estrogen Receptor Levels, Cytosolic (estrogen receptor (ER); [4]): 183.4 ± 9.2 fmol/mg protein; Estrogen Receptor Levels, Nuclear (estrogen receptor (ER); [4]): 83.2 ± 4.2 fmol/mg protein; Estrogen Receptor Levels, Cytosolic (estrogen receptor (ER); [5]): 151.9 ± 9.1 fmol/mg protein; Estrogen Receptor Levels, Nuclear (estrogen receptor (ER); [5]): 82.8 ± 5.0 fmol/mg protein; Estrogen Receptor Levels, Cytosolic (estrogen receptor (ER); [6]): 137.4 ± 6.9 fmol/mg protein; Estrogen Receptor Levels, Nuclear (estrogen receptor (ER); [6]): 69.0 ± 4.1 fmol/mg protein; Estrogen Receptor Levels, Cytosolic (estrogen receptor (ER); [7]): 114.9 ± 5.8 fmol/mg protein; Estrogen Receptor Levels, Nuclear (estrogen receptor (ER); [7]): 69.2 ± 4.2 fmol/mg protein; Progesterone Receptor Levels, Cytosolic [1, 4]: 2167 ± 152 fmol/mg protein; Progesterone Receptor Levels, Nuclear [1, 4]: 866 ± 52 fmol/mg protein; Progesterone Receptor Levels, Cytosolic [1, 5]: 1670 ± 117 fmol/mg protein; Progesterone Receptor Levels, Nuclear [1, 5]: 701 ± 35 fmol/mg protein; Progesterone Receptor Levels, Cytosolic [1, 6]: 1405 ± 98 fmol/mg protein; Progesterone Receptor Levels, Nuclear [1, 6]: 697 ± 56 fmol/mg protein; Progesterone Receptor Levels, Cytosolic [1, 7]: 1098 ± 88 fmol/mg protein; Progesterone Receptor Levels, Nuclear [1, 7]: 514 ± 41 fmol/mg protein
CC(C)c1cc(Cl)cc2c1oc1cc(Cl)cc(Cl)c12 [6-i-Propyl-1,3,8-triCDF] |  |  |  |  |  |  | 10 | 25 |  |  |  |  | 25 | 25 | 0.210 ± 0.012 | 0.154 ± 0.017 | 135.5 ± 78.1 | 52.6 ± 2.6 | 95.2 ± 6.2 | 57.7 ± 2.9 | antiuterotrophic activity (female rat uterus; rat, in vivo): surprisingly active; Progesterone Receptor Levels, Cytosolic [1, 8]: 2131 ± 76 fmol/mg protein; Progesterone Receptor Levels, Nuclear [1, 8]: 272 ± 19 fmol/mg protein; Progesterone Receptor Levels, Cytosolic [1, 9]: 1225 ± 59 fmol/mg protein; Progesterone Receptor Levels, Nuclear [1, 9]: 242 ± 17 fmol/mg protein
Cc1cc2c(cc1Br)oc1cc(Br)c(Br)cc12 | 0.259 ± 0.020 | 0.153 ± 0.003 | 133.3 ± 6.7 | 80.0 ± 4.8 | 128.2 ± 7.7 | 64.3 ± 4.6 |  |  | 505 ± 35 | 221 ± 15 | 362 ± 22 | 270 ± 16 |  |  |  |  |  |  |  |  | 
CCCc1cc(Cl)cc2c1oc1cc(Cl)cc(Cl)c12 [6-n-Propyl-1,3,8-triCDF] |  |  |  |  |  |  |  |  |  |  |  |  |  |  | 0.240 ± 0.019 | 0.118 ± 0.008 | 169.4 ± 6.0 | 33.7 ± 1.7 | 86.4 ± 8.1 | 35.4 ± 1.8 | Progesterone Receptor Levels, Cytosolic [1, 8]: 1838 ± 62 fmol/mg protein; Progesterone Receptor Levels, Nuclear [1, 8]: 408 ± 29 fmol/mg protein; Progesterone Receptor Levels, Cytosolic [1, 9]: 740 ± 71 fmol/mg protein; Progesterone Receptor Levels, Nuclear [1, 9]: 294 ± 21 fmol/mg protein
